Key:
guinea pig ileum = test: Effect of test compound alone on guinea pig ileum contraction (Assay 3)
Protocol: Duncan Hartley derived male guinea pigs (325±25 g) were suppressed by CO2 overexposure, the abdominal cavity was exposed and ileal segments were removed. Small strips of ileum were suspended in organ baths containing Krebs solution (composition in g/l: NaCl 6.89, KCl 0.35, CaCl2 0.277, KH2PO4 0.163, MgSO4.7H2O 0.296, NaHCO3 2.1 glucose 1.8). The solution was kept at 32° C. and gassed with O2 (95%)-CO2 (5%) to maintain pH at 7.4. Mechanical activity was recorded by means of isotonic transducers. A resting tension of 1 g was applied to muscle strips before being equilibrated for 1 h, prior to test compound addition. Each preparation was washed twice at 15 min intervals during the equilibration.
Histamine (1.7 μM; approximately EC60-70) or 5-hydroxytryptamine (5-HT, 2.6 μM; approximately EC60-70) was applied for 5 min and the amplitude of the contraction recorded. The histamine or 5-HT was then washed out until the ileal tissue returned to baseline. Five min after returning to baseline test compound (3 and 30 μM) was applied and the amplitude of the contraction (if any) was recorded. In the continuous presence of test compound, histamine or 5-HT was re-applied and the inhibition of the response was recorded.

[1] = test system: histamine-induced contractions in guinea pig ileum; test: Inhibition of histamine-induced contractions in guinea pig ileum (Assay 3); settings: histamine 1.7 μM
Outline: (§1)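 Ileal strips from male Duncan Hartley guinea pigs were held at 1 g tension in 32° C oxygenated Krebs (pH 7.4) with isotonic transducers. After control contractions to 5-HT (2.6 μM) or histamine (1.7 μM), compound at 3 and 30 μM was added, its own effect noted, and agonist re-applied.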

[2] = test system: 5-HT-induced contractions in guinea pig ileum; test: Inhibition of 5-HT-induced contractions in guinea pig ileum (Assay 3); settings: 5-HT 2.6 μM
Outline: as §1

[3] = test system: α-smooth muscle actin (α-SMA) mRNA; test: Anti-remodelling activity in human lung fibroblasts (HFL1): TGFβ-induced α-SMA mRNA (Assay 4); assay type: cell-based; settings: HFL1 cells, TGFβ 10 ng/ml, 24 h
Outline: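 Real-time RT-PCR of α-SMA mRNA, GAPDH as reference, measured after 24 h exposure of low-serum-primed HFL1 cells to 10 ng/ml TGFβ with test compounds (3 and 30 μM) in 10% FBS medium. Readout is inhibition of TGFβ-driven α-SMA mRNA overexpression.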

[4] = test system: IL-1α-induced PGE2 release; test: IL-1α-induced PGE2 release in human diploid lung fibroblasts (WI-38) (Assay 5); assay type: cell-based; settings: WI-38 cells, IL-1α 1 nM, overnight
Outline: (§2)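 Cell viability was read by Alamar Blue fluorescence (530/590 nm) after 4 h at 37 °C, following an overnight 37 °C incubation of human lung fibroblasts with 1 nM IL-1α and compound (3 or 30 μM) in 10% FBS MEM, pH 7.3. Supernatant PGE2 was measured by radioimmunoassay to derive percent inhibition.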

WI-38 cells = test: Viability of WI-38 cells, Alamar Blue (Assay 5); assay type: cell-based, human
Outline: as §2

5-lipoxygenase = biological target: T1, 5-lipoxygenase (Homo sapiens, UniProt P09917); test: 5-lipoxygenase activity (LTB4) in human peripheral blood mononuclear leukocytes (Assay 6); assay type: cell-based; settings: human PBMLs, A23187 30 μM
T1 construct: endogenous in cells; host or cells: human peripheral blood mononuclear leukocytes (PBMLs)
T1 sequence (P09917 1-674): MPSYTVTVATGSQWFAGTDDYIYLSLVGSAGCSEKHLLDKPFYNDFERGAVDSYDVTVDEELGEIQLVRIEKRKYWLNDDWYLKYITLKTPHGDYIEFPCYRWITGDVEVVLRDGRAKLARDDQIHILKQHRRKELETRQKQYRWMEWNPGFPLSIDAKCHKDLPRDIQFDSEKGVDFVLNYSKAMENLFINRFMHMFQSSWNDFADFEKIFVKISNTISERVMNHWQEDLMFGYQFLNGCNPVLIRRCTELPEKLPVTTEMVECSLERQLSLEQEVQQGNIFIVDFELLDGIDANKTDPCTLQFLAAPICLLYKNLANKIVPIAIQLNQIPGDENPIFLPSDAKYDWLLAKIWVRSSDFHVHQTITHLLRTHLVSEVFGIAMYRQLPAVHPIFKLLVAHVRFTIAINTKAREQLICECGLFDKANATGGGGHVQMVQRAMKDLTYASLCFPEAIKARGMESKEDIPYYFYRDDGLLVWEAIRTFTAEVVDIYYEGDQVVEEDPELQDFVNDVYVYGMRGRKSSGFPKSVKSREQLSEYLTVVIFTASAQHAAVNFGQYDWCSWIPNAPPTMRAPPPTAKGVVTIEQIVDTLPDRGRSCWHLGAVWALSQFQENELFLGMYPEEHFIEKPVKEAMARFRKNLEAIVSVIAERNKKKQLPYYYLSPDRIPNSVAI
Outline: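 LTB4 in supernatant quantified by EIA after 15 min at 37° C. in HBSS, pH 7.4, where Ficoll-isolated human PBMLs (5×10^6) received ionophore A23187 (30 μM) and test compound (3 and 30 μM) or 0.1% DMSO vehicle.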

TRPV1 receptor [5] = biological target: T2, TRPV1 receptor (Rattus norvegicus, UniProt O35433); test: TRPV1 modulation in DRG neurones: CGRP release in absence and presence of capsaicin (Assay 2); assay type: cell-based; parameters: The culture used for this experiment contained sensory neurones, Schwann cells and fibroblasts; endogenous in cells; host or cells: primary rat DRG sensory neurone culture (with Schwann cells and fibroblasts); settings: for Effect of test compounds on capsaicin (1 μM)-induced CGRP release (%): −ve: inhibition, +ve: potentiation of capsaicin response; for CGRP release (% of capsaicin (1 μM) response): rat DRG sensory neurones, 20 min
TRPV1 receptor [6] = biological target: T2, TRPV1 receptor; test: TRPV1 receptor modulation in the rat vas deferens, EFS-induced contraction (Assay 1); settings: electrical field stimulation
Protocol: Wistar derived male rats (275±25 g) were suppressed by CO2 overexposure. The vas deferens was removed, placed in Krebs solution, pH 7.4 (composition in g/l: NaCl 6.89, KCl 0.35, CaCl2 0.277, KH2PO4 0.163, MgSO4.7H2O 0.296, NaHCO3 2.1 glucose 1.8) and excess fat and connective tissue removed. The portion of the vas deferens closest to the prostate was cut in half and each half was placed under 1 g tension in a 10 ml bath containing Krebs solution at 32° C. The tissue was contracted by electrical field stimulation (EFS; 60% of maximum stimulation, 0.015 Hz, 0.5 ms in duration) and contractile responses were measured.

T2 sequence (O35433 whole entry): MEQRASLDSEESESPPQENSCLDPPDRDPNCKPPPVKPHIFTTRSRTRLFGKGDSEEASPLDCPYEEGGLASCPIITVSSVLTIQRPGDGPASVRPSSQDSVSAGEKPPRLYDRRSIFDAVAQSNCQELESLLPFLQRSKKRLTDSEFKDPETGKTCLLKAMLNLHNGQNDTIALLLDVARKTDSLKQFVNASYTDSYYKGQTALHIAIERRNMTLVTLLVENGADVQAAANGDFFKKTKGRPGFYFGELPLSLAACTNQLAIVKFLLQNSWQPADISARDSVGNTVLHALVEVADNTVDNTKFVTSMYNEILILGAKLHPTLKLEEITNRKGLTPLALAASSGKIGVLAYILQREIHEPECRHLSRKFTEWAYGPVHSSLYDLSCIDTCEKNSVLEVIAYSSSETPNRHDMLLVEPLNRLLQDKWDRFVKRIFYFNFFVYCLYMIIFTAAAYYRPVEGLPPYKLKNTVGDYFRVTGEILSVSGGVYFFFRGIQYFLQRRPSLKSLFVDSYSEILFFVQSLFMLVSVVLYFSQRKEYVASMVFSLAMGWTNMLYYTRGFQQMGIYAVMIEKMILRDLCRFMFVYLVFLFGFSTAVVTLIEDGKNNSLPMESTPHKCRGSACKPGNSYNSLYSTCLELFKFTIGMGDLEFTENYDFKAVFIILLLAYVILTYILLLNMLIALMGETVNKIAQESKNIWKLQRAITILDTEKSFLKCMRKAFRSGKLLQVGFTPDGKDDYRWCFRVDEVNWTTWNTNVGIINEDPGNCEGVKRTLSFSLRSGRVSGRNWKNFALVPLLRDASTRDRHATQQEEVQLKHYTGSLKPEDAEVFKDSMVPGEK

Row | Structure (SMILES) | Contraction of guinea pig ileum relative to 5-HT-induced contraction (guinea pig ileum; 3 μM) | Contraction of guinea pig ileum relative to histamine-induced contraction (guinea pig ileum; 3 μM) | Contraction of guinea pig ileum relative to 5-HT-induced contraction (guinea pig ileum; 30 μM) | Contraction of guinea pig ileum relative to histamine-induced contraction (guinea pig ileum; 30 μM) | Inhibition of histamine-induced contraction (%) ([1]; 3 μM) | Inhibition of histamine-induced contraction (%) ([1]; 30 μM) | Inhibition of 5-HT-induced contraction (%) ([2]; 3 μM) | Inhibition of 5-HT-induced contraction (%) ([2]; 30 μM) | Inhibition of α-SMA mRNA synthesis (%) ([3]; 3 μM) | Inhibition of α-SMA mRNA synthesis (%) ([3]; 30 μM) | Inhibition of IL-1α-induced PGE2 release (%) ([4]; 3 μM) | Inhibition of IL-1α-induced PGE2 release (%) ([4]; 30 μM) | Decrease in cell viability (%) (WI-38 cells; 3 μM) | Decrease in cell viability (%) (WI-38 cells; 30 μM) | Inhibition of 5-LO (%) (5-lipoxygenase; 3 μM) | Inhibition of 5-LO (%) (5-lipoxygenase; 30 μM) | Effect of test compounds on capsaicin (1 μM)-induced CGRP release (%) (TRPV1 receptor [5]; 3 μM with capsaicin 1 μM) | Effect of test compounds on capsaicin (1 μM)-induced CGRP release (%) (TRPV1 receptor [5]; 30 μM with capsaicin 1 μM) | CGRP release (% of capsaicin (1 μM) response) (TRPV1 receptor [5]; test compound alone 3 μM) [%] | CGRP release (% of capsaicin (1 μM) response) (TRPV1 receptor [5]; test compound alone 30 μM) [%] | further results
1 | CCC(=O)CC(=O)CCc1ccc(O)c(OC)c1 [3-gingerdione, reference compound] | 0 | 0 | 0 | 0 | 5 | 14 | 0 | 5 | 13 | 24 | 61 | 99 | 4 | 5 | −5 | 73 | −37 | −43 | 17 | 18 | –
2 | COc1cc(CCC(=O)CC(=O)C(C)C)ccc1O [Compound 1] | 0 | 0 | 0 | 0 | 0 | 11 | 0 | 20 | 12 | 34 | 68 | 101 | 3 | −10 | 26 | 63 | −36 | −24 | 26 | 41 | Inhibition of EFS response relative to capsaicin (TRPV1 receptor [6]): 27%
3 | COc1cc(CCC(=O)CC(=O)c2ccc(Cl)c(Cl)c2)ccc1O [Compound 23, 1-(3,4-Dihlorophenyl)-5-(4-hydroxy-3-methoxyphenyl)pentane-1,3-dione] | 0 | 0 | 0 | 0 | 8 | 37 | 11 | 25 | 13 | 79 | 84 | 100 | 6 | 16 | 63 | 98 | −2 | 47 | 84 | 242 | –
4 | COc1cc(CCC(=O)CC(=O)c2ccc(Cl)cc2Cl)ccc1O [Compound 24, 1-(2,4-Dihlorophenyl)-5-(4-hydroxy-3-methoxyphenyl)pentane-1,3-dione] | 0 | 0 | 0 | 0 | 12 | 59 | 5 | 98 | 8 | 80 | 93 | 100 | 7 | 26 | 45 | 97 | −13 | 2 | 92 | 193 | –

Source: patent US7589123B2, “Chemical compounds” (Phytopharm PLC, priority 2006, dated 2009)
